Measurements: patent US11214569B2, “Prodrugs of quinuclidine ring-containing muscarinic agonists and compositions and methods thereof” (Lenz Therapeutics, Inc., priority 2018, dated 2022)

Test: pH vs. solution stability of phosphono oxylmethyl prodrugs
Assay type: physicochemical

phosphono oxylmethyl aceclidine
Solubility (pH of solution 5.22): Best | Solubility (pH of solution 6.22): Fair | Solubility (pH of solution 7.22): Poor

phosphono oxymethyl talsaclidine
Solubility (pH of solution 5.45): Best | Solubility (pH of solution 6.45): Fair | Solubility (pH of solution 7.45): Poor
